From patent US11690379B2, “Aqueous insecticidal composition and methods of use thereof” (priority 2020, dated 2023)

Legend:
Format in all cases: in vivo
[1] = test system: Asian citrus psyllid (Diaphorina citri); experiment: Foliar spray bioefficacy on Valencia oranges
Experimental: A bioefficacy assay utilizing a foliar spray containing Spirotetramat and pyriproxyfen was conducted on the Asian citrus psyllid (Diaphorina citri) on Valencia oranges. Spirotetramat and pyriproxyfen were applied concurrently and separately as a foliar spray. Application rates and results of this assay can be found in Table 12, below.

[2] = test system: silverleaf whitefly (Bemisia tabaci); experiment: Foliar spray bioefficacy, third assay (3 applications); details: for # of Individuals per Leaf: Adults, 1st Appl. / # of Individuals per Leaf: Eggs, 1st Appl. / # of Individuals per Leaf: Nymphs, 1st Appl.: 7 days after first application; for # of Individuals per Leaf: Adults, 2nd Appl. / # of Individuals per Leaf: Eggs, 2nd Appl. / # of Individuals per Leaf: Nymphs, 2nd Appl.: 7 days after second application; for # of Individuals per Leaf: Adults, 3rd Appl. / # of Individuals per Leaf: Eggs, 3rd Appl. / # of Individuals per Leaf: Nymphs, 3rd Appl.: 8 days after third application
Experimental: A bioefficacy assay utilizing a foliar spray containing Spirotetramat and pyriproxyfen was conducted on the silverleaf whitefly (Bemisia tabaci) on tomatoes and bell peppers. […] Control was recorded 7 days after first application, 7 days after second application and 8 days after third application. Application rates and results of this assay can be found in Table 8, below. […] Control was recorded 7 days after first application, 7 days after second application and 8 days after third application. Application rates and results of this assay can be found in Table 10, below.

[3] = test system: vine mealybug (Pseudococcus maritimus); experiment: Foliar spray bioefficacy on table grapes; details: Spirotetramat 131 g/HA
Experimental: A bioefficacy assay utilizing a foliar spray containing Spirotetramat and pyriproxyfen was conducted on the vine mealybug (Pseudococcus maritimus) on table grapes. Spirotetramat and pyriproxyfen were applied concurrently as a foliar spray and spirotetramat was also applied individually. Application rates and results of this assay can be found in Table 11, below.

[4] = test system: silverleaf whitefly (Bemisia tabaci); experiment: Foliar spray bioefficacy, first assay (3 applications); details: for # of Individuals per Leaf: Adults, 1st Appl. / # of Individuals per Leaf: Eggs, 1st Appl. / # of Individuals per Leaf: Nymphs, 1st Appl.: 7 days after first application; for # of Individuals per Leaf: Adults, 2nd Appl. / # of Individuals per Leaf: Eggs, 2nd Appl. / # of Individuals per Leaf: Nymphs, 2nd Appl.: 7 days after second application; for # of Individuals per Leaf: Adults, 3rd Appl. / # of Individuals per Leaf: Eggs, 3rd Appl. / # of Individuals per Leaf: Nymphs, 3rd Appl.: 8 days after third application
Experimental: (§1) A bioefficacy assay utilizing a foliar spray containing Spirotetramat and pyriproxyfen was conducted on the silverleaf whitefly (Bemisia tabaci) on tomatoes and bell peppers. […] Control was recorded 7 days after first application, 7 days after second application and 8 days after third application. Application rates and results of this assay can be found in Table 8, below.

[5] = test system: silverleaf whitefly (Bemisia tabaci); experiment: Foliar spray bioefficacy, second assay (2 applications); details: recorded 8 days after second application
Experimental: as §1, with “below. […] Control was recorded 8 days after second application. Application rates and results of this assay can be found in Table 9, below.” for “below.”

In the case of `CCOC(=O)OC1=C(c2cc(C)ccc2C)C(=O)N[C@]12CC[C@@H](OC)CC2` [Spirotetramat, cis-3-(2,5-dimethylphenyl)-8-methoxy-2-oxo-1-azaspiro[4.5]dec-3-en-4-ylethyl carbonate], the “# of Nymphs” value ([1]; Spirotetramat 163.7 g/HA) is reported as 8.6, the “# of Individuals per Leaf: Adults, 1st Appl.” value ([2]; Spirotetramat 87.6 g/HA) is reported as 3.3 per Leaf and the “# of Individuals per Leaf: Eggs, 1st Appl.” value ([2]; Spirotetramat 87.6 g/HA) is reported as 6.5 per Leaf. For the same molecule, the “# of Individuals per Leaf: Nymphs, 1st Appl.” value ([2]; Spirotetramat 87.6 g/HA) was 17.8 per Leaf, the “# of Individuals per Leaf: Adults, 2nd Appl.” value ([2]; Spirotetramat 87.6 g/HA) was 2.0 per Leaf and the “# of Individuals per Leaf: Eggs, 2nd Appl.” value ([2]; Spirotetramat 87.6 g/HA) was 13.8 per Leaf. The “# of Individuals per Leaf: Nymphs, 2nd Appl.” value ([2]; Spirotetramat 87.6 g/HA) was 30.5 per Leaf, the “# of Individuals per Leaf: Adults, 3rd Appl.” value ([2]; Spirotetramat 87.6 g/HA) was 2.0 per Leaf and the “# of Individuals per Leaf: Eggs, 3rd Appl.” value ([2]; Spirotetramat 87.6 g/HA) was 11.0 per Leaf. For the same molecule, the “# of Individuals per Leaf: Nymphs, 3rd Appl.” value ([2]; Spirotetramat 87.6 g/HA) was 16.8 per Leaf, the “% bunches infested” value [3] was 6.8% and the “# of Individuals per Leaf: Adults, 1st Appl.” value ([4]; Spirotetramat 87.6 g/HA) was 3.3 per Leaf. For the same molecule, the “# of Individuals per Leaf: Eggs, 1st Appl.” value ([4]; Spirotetramat 87.6 g/HA) was 6.5 per Leaf, the “# of Individuals per Leaf: Nymphs, 1st Appl.” value ([4]; Spirotetramat 87.6 g/HA) was 17.8 per Leaf and the “# of Individuals per Leaf: Adults, 2nd Appl.” value ([4]; Spirotetramat 87.6 g/HA) was 2.0 per Leaf. For the same molecule, the “# of Individuals per Leaf: Eggs, 2nd Appl.” value ([4]; Spirotetramat 87.6 g/HA) was 13.8 per Leaf, the “# of Individuals per Leaf: Nymphs, 2nd Appl.” value ([4]; Spirotetramat 87.6 g/HA) was 30.5 per Leaf and the “# of Individuals per Leaf: Adults, 3rd Appl.” value ([4]; Spirotetramat 87.6 g/HA) was 2.0 per Leaf. The “# of Individuals per Leaf: Eggs, 3rd Appl.” value ([4]; Spirotetramat 87.6 g/HA) was 11.0 per Leaf, the “# of Individuals per Leaf: Nymphs, 3rd Appl.” value ([4]; Spirotetramat 87.6 g/HA) was 16.8 per Leaf and the “# of Individuals per Leaf: Adults, 1st Appl.” value ([5]; Spirotetramat 87.6 g/HA) was 2.6 per Leaf. The “# of Individuals per Leaf: Eggs, 1st Appl.” value ([5]; Spirotetramat 87.6 g/HA) was 12.7 per Leaf and the “# of Individuals per Leaf: Nymphs, 1st Appl.” value ([5]; Spirotetramat 87.6 g/HA) was 33.2 per Leaf.
In the case of `CC(COc1ccc(Oc2ccccc2)cc1)Oc1ccccn1` (racemic) [Pyriproxyfen, 4-Phenoxyphenyl (R/S)-2-(2-pyridyloxy)propyl ether], the “# of Nymphs” value ([1]; Pyriproxyfen 127.9 g/HA) is reported as 14.1, the “# of Individuals per Leaf: Adults, 1st Appl.” value ([2]; Pyriproxyfen 75.3 g/HA) is reported as 0.5 per Leaf and the “# of Individuals per Leaf: Eggs, 1st Appl.” value ([2]; Pyriproxyfen 75.3 g/HA) is reported as 0.5 per Leaf. For the same molecule, the “# of Individuals per Leaf: Nymphs, 1st Appl.” value ([2]; Pyriproxyfen 75.3 g/HA) was 0.5 per Leaf, the “# of Individuals per Leaf: Adults, 2nd Appl.” value ([2]; Pyriproxyfen 75.3 g/HA) was 1.5 per Leaf and the “# of Individuals per Leaf: Eggs, 2nd Appl.” value ([2]; Pyriproxyfen 75.3 g/HA) was 2.3 per Leaf. The “# of Individuals per Leaf: Nymphs, 2nd Appl.” value ([2]; Pyriproxyfen 75.3 g/HA) was 0.8 per Leaf, the “# of Individuals per Leaf: Adults, 3rd Appl.” value ([2]; Pyriproxyfen 75.3 g/HA) was 1.0 per Leaf and the “# of Individuals per Leaf: Eggs, 3rd Appl.” value ([2]; Pyriproxyfen 75.3 g/HA) was 2.0 per Leaf. The “# of Individuals per Leaf: Nymphs, 3rd Appl.” value ([2]; Pyriproxyfen 75.3 g/HA) was 0.8 per Leaf, the “# of Individuals per Leaf: Adults, 1st Appl.” value ([4]; Pyriproxyfen 75.3 g/HA) was 0.5 per Leaf and the “# of Individuals per Leaf: Eggs, 1st Appl.” value ([4]; Pyriproxyfen 75.3 g/HA) was 0.5 per Leaf. For the same molecule, the “# of Individuals per Leaf: Nymphs, 1st Appl.” value ([4]; Pyriproxyfen 75.3 g/HA) was 0.5 per Leaf, the “# of Individuals per Leaf: Adults, 2nd Appl.” value ([4]; Pyriproxyfen 75.3 g/HA) was 1.5 per Leaf and the “# of Individuals per Leaf: Eggs, 2nd Appl.” value ([4]; Pyriproxyfen 75.3 g/HA) was 2.3 per Leaf. The “# of Individuals per Leaf: Nymphs, 2nd Appl.” value ([4]; Pyriproxyfen 75.3 g/HA) was 0.8 per Leaf, the “# of Individuals per Leaf: Adults, 3rd Appl.” value ([4]; Pyriproxyfen 75.3 g/HA) was 1.0 per Leaf and the “# of Individuals per Leaf: Eggs, 3rd Appl.” value ([4]; Pyriproxyfen 75.3 g/HA) was 2.0 per Leaf. For the same molecule, the “# of Individuals per Leaf: Nymphs, 3rd Appl.” value ([4]; Pyriproxyfen 75.3 g/HA) was 0.8 per Leaf, the “# of Individuals per Leaf: Adults, 1st Appl.” value ([5]; Pyriproxyfen 75.3 g/HA) was 1.6 per Leaf and the “# of Individuals per Leaf: Eggs, 1st Appl.” value ([5]; Pyriproxyfen 75.3 g/HA) was 27.4 per Leaf. The “# of Individuals per Leaf: Nymphs, 1st Appl.” value ([5]; Pyriproxyfen 75.3 g/HA) was 65.9 per Leaf.
